How the values were obtained:
Gibberella zeae K6102 = type: cell-based; details: CtmC 10 ppm
Puccinia triticina [1] = assay: Leaf disc assay, wheat leaf segments, preventive; type: in vivo; details: rate 20 ppm, 8 dpi
Protocol: (§1) A CtmC stock was generated at 1000 ppm in DMSO, then Diluted 1:50 in water+Tween 20 at 0.025% resulting in a 20 ppm solution.
(§2) Puccinia triticina (also known as recondite, Brown rust, wheat): Wheat leaf segments are placed on agar in multiwell plates (24-well format) and sprayed with test solutions. After drying, the leaf disks are inoculated with a spore suspension of the fungus. After appropriate incubation the activity of a compound is assessed 8 dpi (days after inoculation) as preventive fungicidal activity.

Puccinia triticina [2] = assay: Greenhouse test, wheat, preventative; type: in vivo; details: 2 days preventative, EC50 formulation
Protocol: (§3) Purified Cyclothiazomycin C (CtmC) was formulated as an EC50 formulation. The formulation was diluted in water at rates of 100 ppm and 50 ppm of CtmC. Plants were treated with 400 L/ha of the diluted product supplemented with an adjuvant to improve sticking and spreading, resulting in a treatment of 40 g/ha and 20 g/ha of CtmC, respectively.
Puccinia triticina (also known as recondata, Brown rust on wheat). 2-week old wheat plants cv. Arina are sprayed in a spray chamber with the formulated test compound diluted in water. […] After an incubation period of 1 day at 20° C. and 95% rh, the inoculated test plants are kept at 20° C./18° C. (day/night) and 60% rh in a greenhouse. The percentage leaf area covered by disease is assessed when an appropriate level of disease appears on untreated check plants (12-14 days after application).

[3] = test system: Fusarium sporotrichioides K7901; type: cell-based; details: CtmC 10 ppm
Mycosphaerella arachidis [4] = assay: Greenhouse test, peanut (groundnut), preventative; type: in vivo; details: 1 day preventative, EC50 formulation
Protocol: as §3
Mycosphaerella arachidis peanut/preventative (Brown leaf spot on groundnut) 3-week old peanut plants cv. Georgia Green are sprayed in a spray chamber with the formulated test compound diluted in water. The test plants are inoculated by spraying them with a spore suspension on their lower leaf surface one day after application. After an incubation period of 4 days under a plastic hood at 23° C. and 100% rh, the inoculated test plants are kept at 23° C./20° C. (day/night) and 70% rh in a greenhouse. The percentage leaf area covered by disease is assessed when an appropriate level of disease appears on untreated check plants (12-14 days after application).

Zymoseptoria tritici [5] = assay: Efficacy of purified CtmC in-vitro, microtiter plate growth inhibition; type: cell-based; details: rate 10 ppm; 72 hrs at 24° C.
Protocol: (§4) CtmC was dissolved in DMSO (Dimethylsulfoxid) to a final concentration of 1000 ppm to create a stock solution. A second dilutions of 1:10 was made in water+0.025% Tween 20. From this second dilution 10 μl are dispensed into a 96-well plate. To each well, 90 μl of medium with fungal spores are added and mixed, resulting in final CtmC concentrations of 10 ppm. All wells containing CtmC also contain DMSO (1%) and Tween 20 (0.0025%).
Zymoseptoria tritici (Septoria leaf blotch): Conidia of the fungus from cryogenic storage were directly mixed into nutrient broth (PDB potato dextrose broth). After placing a solution of the test compounds into a microtiter plate (96-well format) the nutrient broth containing the fungal spores was added.

Phakopsora pachyrhizi = assay: Leaf disc assay, soybean leaf disks, preventive; type: in vivo; details: rate 20 ppm, approx. 12 dpi
Protocol: as §1
as §2, with “Phakopsora pachyrhizi (Asian Soybean rust): Soybean” for “Puccinia triticina (also known as recondite, Brown rust, wheat): Wheat”, “disks” for “segments”, “approx. 12” for “8”, “activity” for “activity.”

Zymoseptoria tritici [6] = assay: Greenhouse test, wheat, preventative; type: in vivo; details: 1 day preventative, EC50 formulation
Protocol: as §3
Zymoseptoria tritici wheat/preventative (Septoria tritici leaf spot on wheat). 2-week old wheat plants cv. Riband are sprayed in a spray chamber with the formulated test compound diluted in water. The test plants are inoculated by spraying a spore suspension on them one day after application. After an incubation period of 1 day at 22° C./21° C. (day/night) and 95% rh, the inoculated test plants are kept at 22° C./21° C. (day/night) and 70% rh in a greenhouse. Efficacy is assessed directly when an appropriate level of disease appears on untreated check plants (16-19 days after application).

Botrytis cinerea = assay: Greenhouse test, tomato, preventative; type: in vivo; details: 2 days preventative, EC50 formulation
Protocol: as §3
Botrytis cinerea tomato/preventative (Botrytis on tomato) 4-week old tomato plants cv. Roter Gnom are treated in a spray chamber with the formulated test compound diluted in water. The test plants are inoculated by spraying them with a spore suspension two days after application. The inoculated test plants are incubated at 20° C. and 95% rh in a greenhouse and the percentage leaf area covered by disease is assessed when an appropriate level of disease appears on untreated check plants (5-6 days after application).

Mycosphaerella arachidis [7] = assay: Efficacy of purified CtmC in-vitro, microtiter plate growth inhibition; type: cell-based; details: rate 10 ppm; approximately 5-6 days at 24° C.
Protocol: as §4
Mycosphaerella arachidis (Brown leaf spot of groundnut): Conidia of the fungus from cryogenic storage were directly mixed into nutrient broth (PDB potato dextrose broth). After placing a solution of the test compounds into a microtiter plate (96-well format) the nutrient broth containing the fungal spores was added. The test plates were incubated at 24° C. and the inhibition of growth was determined photometrically after approximately 5-6 days at 620 nm.

C=C1NC(=O)CNC(=O)[C@H](CCCCN)NC(=O)[C@@]2(C)NC(=O)/C(=C/C)NC(=O)[C@H]3CSC(=N3)[C@@H](CC(N)=O)CC(=O)c3ccc(nc3[C@@H](C)NC(=O)[C@@H]3CCCN3C1=O)-c1nc(cs1)C1=N[C@H](CS1)C(=O)NC(=C)c1nc(cs1)-c1nc(cs1)C1=N[C@@H](CS1)C(=O)N[C@@H](C(=O)O)CS2 [CtmC, cyclothiazomycin C]
efficacy (%) (Gibberella zeae K6102): 52%
optical density at 620 nm (Gibberella zeae K6102; blank 0.044, untreated 0.733): 0.377
control of fungal growth (%) (Puccinia triticina [1]): 90%
efficacy 20 g/ha (%) (Puccinia triticina [2]; 20 g/ha): 81%
efficacy 40 g/ha (%) (Puccinia triticina [2]; 40 g/ha): 81%
efficacy (%) [3]: 71%
optical density at 620 nm ([3]; blank 0.052, untreated 0.666): 0.231
efficacy 20 g/ha (%) (Mycosphaerella arachidis [4]; 20 g/ha): 56%
efficacy 40 g/ha (%) (Mycosphaerella arachidis [4]; 40 g/ha): 65%
control of fungal growth (%) (Zymoseptoria tritici [5]): 90%
control of fungal growth (%) (Phakopsora pachyrhizi): 50%
efficacy 20 g/ha (%) (Zymoseptoria tritici [6]; 20 g/ha): 44%
efficacy 40 g/ha (%) (Zymoseptoria tritici [6]; 40 g/ha): 16%
efficacy 20 g/ha (%) (Botrytis cinerea; 20 g/ha): 30%
efficacy 40 g/ha (%) (Botrytis cinerea; 40 g/ha): 47%
control of fungal growth (%) (Mycosphaerella arachidis [7]): 100%
